Data reported in the supplement of paper PMC11208160.

Assay: recombinant barcode read abundance after kanamycin selection (control-corrected) (log10(CPM+1)); higher = more efficient recombination; sequences stand for … in AGTGCAGAGAAAATCGGCCAGTTTTCTCTGCCTGCAGTCCGCATGCCGT…AGATTTATGCAGCGGACTGCCTTTCTCCCAAAGTGATAAACCGGACAGTATCATGGACCGGTTTTCCCGGTAATCCGTATTTGCAAGGTTGGTTTCACT; site = the 11-nt target
In short: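 Targets and IS621 bridge RNA target-binding loops were paired in oligos, each with a promoter, a barcode and the J23119-driven first 104 bridge RNA bases. A vector carrying the remaining 73 bp and a T7-inducible recombinase received these by Gibson cloning, and the pool was co-electroporated into E. coli with a donor plasmid. Duplicate plates contained chloramphenicol/ampicillin LB agar (control) or chloramphenicol/ampicillin/kanamycin with 0.1 mM IPTG. Recombination efficiency comes from averaged, control-corrected counts per million of recombinant-junction barcodes, reported as log10(CPM+1).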
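Also: IS621 recombinase and bridge RNA in Escherichia coli cells.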

Sequence | recombinant barcode read abundance (log10)
TAGGTCACTTGGGTTCTAACCTGTTGCAT (site TAGGTCACTAT) | 2.43
TAGGTCACTTGGGTTCTAACCTGTTGCAT (site TAGTTCACTAT) | 0.0621
TAGTAACCTTGGGTTCTAACCTGTTGCTT (site TAGTAACCTAA) | 0.683
TAGTAACCTTGGGTTCTAACCTGTTGCTT (site TAGTACCCTCA) | 0.0923
TAGTACTCTTGGGTTCTAACCTGTTGCTC (site TAGTACTCTAA) | 0.096
TAGTACTCTTGGGTTCTAACCTGTTGCTC (site TAGTACTCTCA) | 0.429
TAGTACTCTTGGGTTCTAACCTGTTGCTC (site TAGTACTCTGA) | 1.52
TAGTACTCTTGGGTTCTAACCTGTTGCTC (site TAGTACTCTTA) | 0.124
TAGTATACTTGGGTTCTAACCTGTTGCTG (site TAGTATACTCA) | 1.16
TAGTATACTTGGGTTCTAACCTGTTGCTG (site TCGTATACTCC) | 0.0803
TAGTATCCTTGGGTTCTAACCTGTTGCCT (site TAGTAAGCTAG) | 0.433
TAGTATCCTTGGGTTCTAACCTGTTGCCT (site TAGTATCCTAG) | 1.04
TAGTATGCTTGGGTTCTAACCTGTTGCTA (site TAGTATCCTTA) | 0.0173
TAGTATGCTTGGGTTCTAACCTGTTGCTA (site TAGTATGCTTA) | 1.39
TAGTCAACTTGGGTTCTAACCTGTTGCGT (site TAGTCAACTAC) | 0.593
TAGTCAACTTGGGTTCTAACCTGTTGCGT (site TGGCCAACTAC) | 0.0928
TAGTCAGCTTGGGTTCTAACCTGTTGCAC (site TAGTCAGCTGT) | 1.2
TAGTCAGCTTGGGTTCTAACCTGTTGCAC (site TGGTCGGCTGT) | 0.00985
TAGTCCTCTTGGGTTCTAACCTGTTGCTA (site TAGTCCTCTAA) | 0.0289
TAGTCCTCTTGGGTTCTAACCTGTTGCTA (site TAGTCCTCTCA) | 0.0797
TAGTCCTCTTGGGTTCTAACCTGTTGCTA (site TAGTCCTCTGA) | 0.0492
TAGTCCTCTTGGGTTCTAACCTGTTGCTA (site TAGTCCTCTTA) | 1.05

Sequence | recombinant barcode read abundance (log10)
TAGTCCTCTTGGGTTCTAACCTGTTGCTC (site TAGTCCTCTAA) | 0.0149
TAGTCCTCTTGGGTTCTAACCTGTTGCTC (site TAGTCCTCTCA) | 0.0708
TAGTCCTCTTGGGTTCTAACCTGTTGCTC (site TAGTCCTCTGA) | 0.935
TAGTCCTCTTGGGTTCTAACCTGTTGCTC (site TAGTCCTCTTA) | 0.118
TAGTGAACTTGGGTTCTAACCTGTTGCAC (site GCCGAGCCTTG) | 0.0124
TAGTGAACTTGGGTTCTAACCTGTTGCAC (site TAGTGAACTGT) | 0.347
TAGTGCTCTTGGGTTCTAACCTGTTGCCA (site TAGTGCTCTAG) | 0.444
TAGTGCTCTTGGGTTCTAACCTGTTGCCA (site TAGTGCTCTCG) | 0.0477
TAGTGCTCTTGGGTTCTAACCTGTTGCCA (site TAGTGCTCTGG) | 0.00954
TAGTGCTCTTGGGTTCTAACCTGTTGCCA (site TAGTGCTCTTG) | 1.16
TAGTGCTCTTGGGTTCTAACCTGTTGCCG (site TAGTGCTCTAG) | 0.595
TAGTGCTCTTGGGTTCTAACCTGTTGCCG (site TAGTGCTCTCG) | 1.24
TAGTGCTCTTGGGTTCTAACCTGTTGCCG (site TAGTGCTCTGG) | 0.0187
TAGTGCTCTTGGGTTCTAACCTGTTGCCG (site TAGTGCTCTTG) | 0.355
TAGTGCTCTTGGGTTCTAACCTGTTGCTC (site TAGAGCTCTCA) | 0.185
TAGTGCTCTTGGGTTCTAACCTGTTGCTC (site TAGTGCTCTGA) | 1.07
TAGTGGACTTGGGTTCTAACCTGTTGCCA (site TAGTGGACTTG) | 0.466
TAGTGGACTTGGGTTCTAACCTGTTGCCA (site TAGTGGCCTTG) | 0.151
TAGTGTGCTTGGGTTCTAACCTGTTGCTT (site TAGTGTGCTAA) | 0.31
TAGTGTGCTTGGGTTCTAACCTGTTGCTT (site TAGTGTGCTAC) | 0.117
TAGTTACCTTGGGTTCTAACCTGTTGCCG (site TACTTAGCTCG) | 0.00977
TAGTTACCTTGGGTTCTAACCTGTTGCCG (site TAGTTACCTCG) | 0.612

Sequence | recombinant barcode read abundance (log10)
TAGTTAGCTTGGGTTCTAACCTGTTGCCC (site TAGTTAGCTAG) | 0.0394
TAGTTAGCTTGGGTTCTAACCTGTTGCCC (site TAGTTAGCTCG) | 0.0413
TAGTTAGCTTGGGTTCTAACCTGTTGCCC (site TAGTTAGCTGG) | 0.945
TAGTTAGCTTGGGTTCTAACCTGTTGCCC (site TAGTTAGCTTG) | 0.0262
TAGTTGACTTGGGTTCTAACCTGTTGCCA (site TAGTTAACTTG) | 0.45
TAGTTGACTTGGGTTCTAACCTGTTGCCA (site TAGTTCACTTG) | 0.00742
TAGTTGACTTGGGTTCTAACCTGTTGCCA (site TAGTTGACTTG) | 0.986
TAGTTGACTTGGGTTCTAACCTGTTGCCA (site TAGTTTACTTG) | 0.0255
TATAAGACTTGGGTTCTAACCTGTTGCAC (site TAGAAGACTAT) | 0.587
TATAAGACTTGGGTTCTAACCTGTTGCAC (site TATAAGACTGT) | 0.755
TATAATACTTGGGTTCTAACCTGTTGCGA (site TATAATACTTC) | 0.32
TATAATACTTGGGTTCTAACCTGTTGCGA (site TATACTACTTA) | 0.0449
TATAATGCTTGGGTTCTAACCTGTTGCGT (site ATCGGACCTCA) | 0.15
TATAATGCTTGGGTTCTAACCTGTTGCGT (site TATAATGCTAC) | 0.335
TATACTACTTGGGTTCTAACCTGTTGCTA (site TATAATACTTC) | 0.511
TATACTACTTGGGTTCTAACCTGTTGCTA (site TATACTACTTA) | 0.0716
TATAGCTCTTGGGTTCTAACCTGTTGCCT (site AATAGCTCTAG) | 0.0791
TATAGCTCTTGGGTTCTAACCTGTTGCCT (site CATAGCTCTAG) | 0.242
TATAGCTCTTGGGTTCTAACCTGTTGCCT (site GATAGCTCTAG) | 0.106
TATAGCTCTTGGGTTCTAACCTGTTGCCT (site TATAGCTCTAG) | 0.479
TATAGGGCTTGGGTTCTAACCTGTTGCCG (site GATAGGGCTCC) | 0
TATAGGGCTTGGGTTCTAACCTGTTGCCG (site TATAGGGCTCG) | 0.402
